Among the test systems are LOX IMVI; IGROV-1; COLO 205; HL-60; M14; SR; ACHN; SW-620; SK-OV-3; UACC-257; SN12C; NCI-H23; HCC 2998; KM12; MDA-N; SF-295; MDA-MB-231; OVCAR-3; MDA-MB-435; NCI-H522.
Holding throughout (assay): NCI-60 cell line screen, 48 h

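Dose response: 5 concentrations. Exposure: 48 h. Format: 96-well plates. Endpoint: linear interpolation; highest concentration if not reached. Abbreviation: GI50, concentration required for 50% inhibition of growth.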 The source made the active and inactive calls. No stated cut-off is given here; in the data, active = GI50 up to about 1.1 µM and inactive = higher. Where only a bound is given, the exact number is not on record here.

As for `O=C(O)C(=Cc1ccc(-c2ccccc2)cc1)C(=O)O`, the GI50 was 9.75 µM (inactive) with LOX IMVI; 23.3 µM (inactive) in the assay on IGROV-1; 11.2 µM (inactive) with COLO 205; 7.53 µM (inactive) in the assay on HL-60; 12.4 µM (inactive) in the assay with M14; 1.49 µM (inactive) with SR. The GI50 in the assay on ACHN is 18.6 µM (inactive); with SW-620 it was 11.3 µM (inactive); in the assay with SK-OV-3, 12.6 µM (inactive); in the assay with UACC-257, 11.1 µM (inactive); with SN12C, 11.5 µM (inactive); with NCI-H23 it was 6.87 µM (inactive). Further, the GI50 in the assay on HCC 2998 was 8.73 µM (inactive); with KM12 it was 15.6 µM (inactive); in the assay with MDA-N it was 19.1 µM (inactive); with SF-295, 18.6 µM (inactive); with MDA-MB-231, 14.9 µM (inactive); in the assay on OVCAR-3, 5.53 µM (inactive). In addition, the GI50 in the assay on MDA-MB-435 was 9.16 µM (inactive); in the assay on NCI-H522, 6.82 µM (inactive).
In the case of `COc1cc(C2c3cc4c(cc3OC(O)C2C)OCO4)cc(OC)c1OC` (stereo not given), the GI50 in the assay with LOX IMVI is 0.69 µM (active); in the assay on IGROV-1, 0.553 µM (active); in the assay on COLO 205 it was 0.315 µM (active); with HL-60 it was 0.172 µM (active); in the assay on M14, 0.376 µM (active); in the assay with SR, 0.2 µM (active). The GI50 with ACHN was 0.792 µM (active); with SW-620 it was 0.292 µM (active); in the assay with SK-OV-3 it was 0.414 µM (active); in the assay on UACC-257, 9.68 µM (inactive); with SN12C it was 0.446 µM (active); in the assay with NCI-H23, 0.59 µM (active). The GI50 was 0.61 µM (active) in the assay on HCC 2998; 0.347 µM (active) in the assay on KM12; 0.0887 µM (active) in the assay with MDA-N; 0.324 µM (active) in the assay on SF-295; 0.532 µM (active) with MDA-MB-231; 0.243 µM (active) in the assay on OVCAR-3. Further, the values for the GI50 in the assay on MDA-MB-435 and with NCI-H522 were 0.0377 µM (active) and 0.207 µM (active), respectively.
With `O=C1CSC(c2ccccc2[N+](=O)[O-])N1c1ccc(-n2c(-c3ccccc3)nc3ccccc3c2=O)cc1` (stereo not given), the GI50 is 28.6 µM (inactive) in the assay with LOX IMVI; 46.1 µM (inactive) in the assay with IGROV-1; 99.1 µM (inactive) with COLO 205; > 100 µM (inactive) with HL-60; 19.8 µM (inactive) in the assay with SR; 61 µM (inactive) with ACHN. The GI50 in the assay with SW-620 was 64.3 µM (inactive); in the assay on SK-OV-3, 12.5 µM (inactive); with UACC-257, > 100 µM (inactive); in the assay on SN12C, > 100 µM (inactive); in the assay with NCI-H23, > 100 µM (inactive); in the assay on HCC 2998 it was 46.5 µM (inactive). For the same molecule, the GI50 in the assay with KM12 was 48.5 µM (inactive); in the assay on MDA-N, > 100 µM (inactive); with SF-295 it was 24.5 µM (inactive); in the assay on MDA-MB-231, 46.3 µM (inactive); in the assay on OVCAR-3, 79.6 µM (inactive); with MDA-MB-435 it was > 100 µM (inactive). For the same molecule, the GI50 in the assay with NCI-H522 is 22.4 µM (inactive).
As for `CC(NC1=NCCO1)c1ccsc1` (stereo not given), the GI50 in the assay on LOX IMVI is 20.3 µM (inactive); in the assay with IGROV-1, 34.8 µM (inactive); with COLO 205, 17.9 µM (inactive); in the assay with HL-60, 21.5 µM (inactive); in the assay with M14, 17.6 µM (inactive); with SR it was 24.8 µM (inactive). Also, the GI50 with ACHN is 44.9 µM (inactive); in the assay on SW-620 it was 21.5 µM (inactive); in the assay on SK-OV-3, 71.8 µM (inactive); in the assay with UACC-257, 14.4 µM (inactive); in the assay with NCI-H23 it was 64.4 µM (inactive); in the assay on HCC 2998, 69.3 µM (inactive). The GI50 is 18.8 µM (inactive) with KM12; 24.2 µM (inactive) in the assay with MDA-N; 17.8 µM (inactive) in the assay with SF-295; 18.2 µM (inactive) in the assay on MDA-MB-231; 28.8 µM (inactive) with OVCAR-3; 20.9 µM (inactive) with MDA-MB-435. Also, in the assay on NCI-H522, the GI50 was 17.7 µM (inactive).
In the case of `Cc1c(C#N)c2nc3ccccc3n2c(=O)/c1=C/Nc1ccc(Cl)cc1`, the GI50 with LOX IMVI is 30.4 µM (inactive); in the assay with IGROV-1 it was 36.1 µM (inactive); in the assay on COLO 205, 95.1 µM (inactive); with HL-60, > 100 µM (inactive); in the assay on M14, 3.83 µM (inactive); with SR, > 100 µM (inactive). The GI50 with ACHN was 10.6 µM (inactive); in the assay with SW-620, > 100 µM (inactive); with SK-OV-3, 14.1 µM (inactive); with UACC-257, > 100 µM (inactive); with SN12C it was 93.3 µM (inactive); in the assay on NCI-H23 it was 18.1 µM (inactive). Besides, the GI50 with HCC 2998 was > 100 µM (inactive); in the assay with KM12, 6.61 µM (inactive); in the assay with MDA-N, > 100 µM (inactive); with SF-295, 7.71 µM (inactive); in the assay on MDA-MB-231 it was 24.8 µM (inactive); in the assay on MDA-MB-435 it was 94.4 µM (inactive). The GI50 in the assay on NCI-H522 is 46.2 µM (inactive).
`CC(C)(C)c1ccc(C(O)(c2ccc(C(C)(C)C)cc2)c2ccc(C(C)(C)C)cc2)cc1`: the GI50 in the assay with LOX IMVI, with IGROV-1, with COLO 205, in the assay on HL-60, in the assay on M14 and with SR was > 100 µM (inactive) each time. The GI50 with ACHN, with SW-620, in the assay with SK-OV-3, in the assay on SN12C, in the assay with NCI-H23 and with HCC 2998 was > 100 µM (inactive) throughout. Also, the GI50 with KM12, in the assay on MDA-N, with SF-295, in the assay on MDA-MB-231, in the assay with OVCAR-3 and in the assay with MDA-MB-435 was > 100 µM (inactive) throughout. Further, the GI50 in the assay with NCI-H522 was > 100 µM (inactive).
In the case of `COc1ccc(-c2nc(-c3cnccn3)n(C/C=C/c3ccccc3)n2)cc1`, the GI50 was > 100 µM (inactive) in the assay with LOX IMVI; 48.1 µM (inactive) in the assay with IGROV-1; > 100 µM (inactive) in the assay on COLO 205; > 100 µM (inactive) in the assay with HL-60; > 100 µM (inactive) with M14; > 100 µM (inactive) in the assay on SR. The GI50 is > 100 µM (inactive) in the assay on SW-620; 17.9 µM (inactive) with SK-OV-3; > 100 µM (inactive) in the assay with UACC-257; > 100 µM (inactive) in the assay with SN12C; > 100 µM (inactive) in the assay with NCI-H23; > 100 µM (inactive) in the assay with HCC 2998. Further, the GI50 in the assay on KM12 is > 100 µM (inactive); in the assay on MDA-N, > 100 µM (inactive); in the assay on SF-295, 32.1 µM (inactive); with MDA-MB-231, 71.1 µM (inactive); in the assay with OVCAR-3, 40.4 µM (inactive); with MDA-MB-435 it was > 100 µM (inactive). The GI50 in the assay on NCI-H522 is 32.8 µM (inactive).

For the origin of these results see ChEMBL document CHEMBL1201862, “PubChem BioAssay data set” (2004).
